This note sets out measurements from ChEMBL document CHEMBL6109120, “Discovery of Novel SIK2/3 Inhibitors for the Potential Treatment of MEF2C+ Acute Myeloid Leukemia (AML)” (J Med Chem, 2025).

Molecules are shown by their SMILES.

Data set [1] has as its target Tyrosine-protein kinase Lck (Homo sapiens, UniProt P06239). In words: Binding affinity to human LCK by KINOMEscan assay.
The next data set has as its target Cytochrome P450 3A4 (Homo sapiens, UniProt P08684). The data set is described as follows: Inhibition of CYP3A4 in human liver microsomes assessed as midazolam 1-hydroxylation reaction measured after 30 mins by LC/MS/MS analysis. Format: ADME, Microsome. For orientation: Liver microsomes are a subcellular fraction often used to study metabolism.
Another data set has as its target T1, Cytochrome P450 1A2 (Homo sapiens, UniProt P05177).
T1 sequence (P05177 whole entry): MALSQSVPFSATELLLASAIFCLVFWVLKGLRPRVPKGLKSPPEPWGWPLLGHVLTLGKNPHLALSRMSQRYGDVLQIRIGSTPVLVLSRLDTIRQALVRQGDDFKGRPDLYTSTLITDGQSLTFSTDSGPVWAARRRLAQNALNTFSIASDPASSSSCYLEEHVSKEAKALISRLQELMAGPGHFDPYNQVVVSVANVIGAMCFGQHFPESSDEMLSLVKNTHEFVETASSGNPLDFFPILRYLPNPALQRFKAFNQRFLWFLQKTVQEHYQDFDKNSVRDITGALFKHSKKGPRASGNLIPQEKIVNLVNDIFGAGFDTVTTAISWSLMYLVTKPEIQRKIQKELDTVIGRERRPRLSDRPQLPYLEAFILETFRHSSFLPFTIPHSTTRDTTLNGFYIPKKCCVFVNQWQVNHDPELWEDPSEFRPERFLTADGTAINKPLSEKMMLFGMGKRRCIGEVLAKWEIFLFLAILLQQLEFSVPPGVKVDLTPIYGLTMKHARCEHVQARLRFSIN
In words: Inhibition of CYP1A2 in human liver microsomes assessed as Phenacetin O-deethylation reaction measured after 30 mins by LC/MS/MS analysis. Format: ADME, Microsome.

Data set [2] concerns the target Voltage-gated inwardly rectifying potassium channel KCNH2 (Homo sapiens, UniProt Q12809). In words: Inhibition of hERG expressed in HEK cells assessed as K+ tail current by whole-cell electrophysiology. Format: toxicity, cell-based. On the technique in general: hERG is a cardiac potassium channel; its block is linked to QT prolongation.
The target in data set [3] is Mast/stem cell growth factor receptor Kit (Homo sapiens, UniProt P10721). The data set is described as follows: Binding affinity to human KIT by KINOMEscan assay.
Chain of Mast/stem cell growth factor receptor Kit (P10721 whole entry): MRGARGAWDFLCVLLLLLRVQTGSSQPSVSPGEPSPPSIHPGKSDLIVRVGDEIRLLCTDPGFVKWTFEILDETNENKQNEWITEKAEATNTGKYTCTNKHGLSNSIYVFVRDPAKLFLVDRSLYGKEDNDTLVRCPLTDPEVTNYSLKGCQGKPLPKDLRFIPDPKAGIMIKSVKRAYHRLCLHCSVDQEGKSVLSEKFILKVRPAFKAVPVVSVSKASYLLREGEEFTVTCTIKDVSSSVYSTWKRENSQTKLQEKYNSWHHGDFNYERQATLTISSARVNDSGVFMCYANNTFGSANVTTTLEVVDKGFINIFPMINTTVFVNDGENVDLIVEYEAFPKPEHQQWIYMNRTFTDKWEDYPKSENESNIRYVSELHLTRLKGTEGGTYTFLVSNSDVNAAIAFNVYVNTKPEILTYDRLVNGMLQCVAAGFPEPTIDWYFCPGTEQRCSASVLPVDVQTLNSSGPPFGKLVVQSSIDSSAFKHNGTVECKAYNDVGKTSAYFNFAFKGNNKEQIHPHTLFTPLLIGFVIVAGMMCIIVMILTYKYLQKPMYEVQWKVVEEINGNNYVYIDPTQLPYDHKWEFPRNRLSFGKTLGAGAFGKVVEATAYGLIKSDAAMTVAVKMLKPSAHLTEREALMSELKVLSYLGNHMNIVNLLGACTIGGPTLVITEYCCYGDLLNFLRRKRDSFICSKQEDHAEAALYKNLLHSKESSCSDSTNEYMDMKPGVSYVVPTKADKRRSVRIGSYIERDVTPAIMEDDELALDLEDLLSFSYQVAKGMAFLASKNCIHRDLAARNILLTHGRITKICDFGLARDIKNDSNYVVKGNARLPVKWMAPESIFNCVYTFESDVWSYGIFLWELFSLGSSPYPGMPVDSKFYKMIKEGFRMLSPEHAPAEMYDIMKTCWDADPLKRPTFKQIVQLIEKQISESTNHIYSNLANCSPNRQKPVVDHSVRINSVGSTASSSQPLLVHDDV
The target in data set [4] is T2, Dual specificity mitogen-activated protein kinase kinase 5 (Homo sapiens, UniProt Q13163).
T2 sequence (Q13163 whole entry): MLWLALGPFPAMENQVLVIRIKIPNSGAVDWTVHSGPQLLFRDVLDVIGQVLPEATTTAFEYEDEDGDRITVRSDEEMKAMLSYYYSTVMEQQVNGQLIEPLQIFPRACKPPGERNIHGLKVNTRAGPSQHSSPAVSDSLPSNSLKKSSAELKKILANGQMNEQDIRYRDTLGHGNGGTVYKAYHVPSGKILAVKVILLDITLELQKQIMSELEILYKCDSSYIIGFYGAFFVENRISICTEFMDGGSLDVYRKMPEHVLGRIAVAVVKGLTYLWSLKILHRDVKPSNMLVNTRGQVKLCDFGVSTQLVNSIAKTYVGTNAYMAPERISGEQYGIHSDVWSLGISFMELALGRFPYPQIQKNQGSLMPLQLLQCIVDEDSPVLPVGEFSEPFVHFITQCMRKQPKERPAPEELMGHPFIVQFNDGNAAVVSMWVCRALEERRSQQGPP
Description: Binding affinity to human MEK5 by KINOMEscan assay

Data set [5] concerns the target T3, Serine/threonine-protein kinase TBK1 (Homo sapiens, UniProt Q9UHD2).
T3 sequence (Q9UHD2 whole entry): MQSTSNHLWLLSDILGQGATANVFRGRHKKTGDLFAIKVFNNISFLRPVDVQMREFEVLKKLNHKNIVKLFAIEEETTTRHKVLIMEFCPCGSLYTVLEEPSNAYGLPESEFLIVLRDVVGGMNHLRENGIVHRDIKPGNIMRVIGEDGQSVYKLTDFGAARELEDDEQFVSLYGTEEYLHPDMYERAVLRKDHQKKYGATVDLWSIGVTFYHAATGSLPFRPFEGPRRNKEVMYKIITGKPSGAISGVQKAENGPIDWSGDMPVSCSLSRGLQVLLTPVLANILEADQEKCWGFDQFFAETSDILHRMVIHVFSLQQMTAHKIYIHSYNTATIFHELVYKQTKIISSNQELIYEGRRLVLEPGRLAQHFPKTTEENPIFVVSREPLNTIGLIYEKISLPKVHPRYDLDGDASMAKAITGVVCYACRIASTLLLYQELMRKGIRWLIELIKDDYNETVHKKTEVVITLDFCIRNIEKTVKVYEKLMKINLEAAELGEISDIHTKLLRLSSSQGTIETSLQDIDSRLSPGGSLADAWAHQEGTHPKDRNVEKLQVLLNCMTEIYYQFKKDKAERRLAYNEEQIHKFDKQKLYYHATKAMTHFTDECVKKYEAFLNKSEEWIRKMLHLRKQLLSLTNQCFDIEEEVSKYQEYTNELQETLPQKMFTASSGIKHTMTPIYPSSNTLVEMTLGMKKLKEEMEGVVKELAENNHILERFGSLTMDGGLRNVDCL
Description: Binding affinity to human TBK1 by KINOMEscan assay

A further data set deals with Cytochrome P450 2D6 (Homo sapiens, UniProt P10635). The data set is described as follows: Inhibition of CYP2D6 in human liver microsomes assessed as dextromethorphan O-demethylation reaction measured after 30 mins by LC/MS/MS analysis. Format: ADME, Microsome.
Chain of Cytochrome P450 2D6 (P10635 whole entry): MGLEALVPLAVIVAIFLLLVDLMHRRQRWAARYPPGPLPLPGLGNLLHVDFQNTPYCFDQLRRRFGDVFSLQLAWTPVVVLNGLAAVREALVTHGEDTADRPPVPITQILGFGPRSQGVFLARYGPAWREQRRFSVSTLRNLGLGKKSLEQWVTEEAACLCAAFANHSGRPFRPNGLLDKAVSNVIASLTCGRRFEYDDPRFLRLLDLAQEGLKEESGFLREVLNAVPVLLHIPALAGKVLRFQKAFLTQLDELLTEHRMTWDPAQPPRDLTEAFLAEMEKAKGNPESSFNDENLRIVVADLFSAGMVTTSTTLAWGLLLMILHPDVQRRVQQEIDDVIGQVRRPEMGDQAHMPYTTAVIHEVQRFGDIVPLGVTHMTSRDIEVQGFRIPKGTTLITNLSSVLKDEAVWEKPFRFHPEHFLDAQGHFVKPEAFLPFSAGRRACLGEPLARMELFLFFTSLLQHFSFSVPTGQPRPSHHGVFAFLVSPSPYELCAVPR

Chain of Cytochrome P450 3A4 (P08684 whole entry): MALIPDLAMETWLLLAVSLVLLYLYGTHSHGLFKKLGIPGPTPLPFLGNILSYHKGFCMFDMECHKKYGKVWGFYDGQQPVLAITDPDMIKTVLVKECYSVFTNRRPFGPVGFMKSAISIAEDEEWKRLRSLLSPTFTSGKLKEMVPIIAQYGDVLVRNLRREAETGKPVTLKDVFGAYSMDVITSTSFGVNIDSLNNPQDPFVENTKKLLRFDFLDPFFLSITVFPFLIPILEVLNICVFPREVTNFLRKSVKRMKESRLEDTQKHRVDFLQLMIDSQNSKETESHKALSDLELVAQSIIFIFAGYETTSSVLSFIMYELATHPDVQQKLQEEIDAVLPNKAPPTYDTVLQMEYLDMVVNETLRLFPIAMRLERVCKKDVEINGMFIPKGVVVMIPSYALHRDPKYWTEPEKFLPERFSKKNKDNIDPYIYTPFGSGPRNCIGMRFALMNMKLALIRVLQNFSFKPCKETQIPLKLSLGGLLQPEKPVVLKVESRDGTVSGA
Chain of Tyrosine-protein kinase Lck (P06239 whole entry): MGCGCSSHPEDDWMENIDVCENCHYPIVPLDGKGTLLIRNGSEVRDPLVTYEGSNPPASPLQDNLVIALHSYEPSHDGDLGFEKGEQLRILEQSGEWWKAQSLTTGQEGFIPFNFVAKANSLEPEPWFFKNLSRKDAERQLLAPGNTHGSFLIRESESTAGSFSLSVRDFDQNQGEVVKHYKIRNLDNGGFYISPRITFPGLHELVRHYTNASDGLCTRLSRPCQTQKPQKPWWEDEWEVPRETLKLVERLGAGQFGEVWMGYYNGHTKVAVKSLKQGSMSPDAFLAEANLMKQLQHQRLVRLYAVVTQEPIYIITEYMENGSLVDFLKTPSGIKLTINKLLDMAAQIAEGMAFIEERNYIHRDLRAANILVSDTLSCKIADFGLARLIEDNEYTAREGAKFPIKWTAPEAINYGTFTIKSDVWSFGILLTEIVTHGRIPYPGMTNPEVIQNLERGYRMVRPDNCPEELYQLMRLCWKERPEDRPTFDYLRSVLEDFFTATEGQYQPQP
Chain of Voltage-gated inwardly rectifying potassium channel KCNH2 (Q12809 whole entry): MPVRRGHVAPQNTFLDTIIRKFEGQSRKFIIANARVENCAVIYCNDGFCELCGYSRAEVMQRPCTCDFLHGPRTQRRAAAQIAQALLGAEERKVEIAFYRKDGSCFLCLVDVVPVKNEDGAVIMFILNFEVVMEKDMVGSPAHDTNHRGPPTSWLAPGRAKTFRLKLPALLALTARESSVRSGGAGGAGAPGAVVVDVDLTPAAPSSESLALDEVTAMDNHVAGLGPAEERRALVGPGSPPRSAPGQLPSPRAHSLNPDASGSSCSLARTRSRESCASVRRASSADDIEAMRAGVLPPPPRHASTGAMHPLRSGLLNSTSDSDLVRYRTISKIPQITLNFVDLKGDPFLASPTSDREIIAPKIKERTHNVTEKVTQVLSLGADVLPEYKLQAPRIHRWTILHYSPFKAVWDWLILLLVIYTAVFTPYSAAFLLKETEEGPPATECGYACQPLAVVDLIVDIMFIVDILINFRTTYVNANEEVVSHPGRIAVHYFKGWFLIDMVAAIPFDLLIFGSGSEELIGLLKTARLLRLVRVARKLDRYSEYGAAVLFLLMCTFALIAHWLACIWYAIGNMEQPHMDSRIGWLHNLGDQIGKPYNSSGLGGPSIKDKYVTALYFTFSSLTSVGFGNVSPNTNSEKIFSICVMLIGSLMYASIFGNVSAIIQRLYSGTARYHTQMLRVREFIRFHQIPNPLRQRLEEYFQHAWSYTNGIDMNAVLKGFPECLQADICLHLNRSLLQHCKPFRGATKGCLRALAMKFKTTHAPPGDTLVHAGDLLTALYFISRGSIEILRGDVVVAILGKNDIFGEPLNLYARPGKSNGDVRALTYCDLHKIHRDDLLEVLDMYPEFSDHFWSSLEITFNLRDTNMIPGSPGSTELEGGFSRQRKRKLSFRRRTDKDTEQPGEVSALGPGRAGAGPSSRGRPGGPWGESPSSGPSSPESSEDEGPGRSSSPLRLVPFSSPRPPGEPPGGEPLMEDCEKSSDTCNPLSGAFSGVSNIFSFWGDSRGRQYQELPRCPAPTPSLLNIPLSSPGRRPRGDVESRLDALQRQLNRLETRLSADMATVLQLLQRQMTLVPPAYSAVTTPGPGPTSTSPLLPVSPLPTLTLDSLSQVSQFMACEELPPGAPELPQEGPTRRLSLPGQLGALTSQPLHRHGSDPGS

As a reminder, the IC50 is the midpoint of a concentration-inhibition curve. Consider `COc1nc(-c2cc(-c3cnn(C)c3)cnc2N)cc2c1C(=O)N(CC(F)(F)F)CC2`, for which the IC50 in data set [1] was 326 nM; on Cytochrome P450 3A4, greater than 50000 nM; on Cytochrome P450 1A2 it was greater than 50000 nM; in data set [3], 594 nM; in data set [4], 2650 nM; in data set [5] it was 230 nM. The IC50 on Cytochrome P450 2D6 was greater than 50000 nM. Further, the “inhibition (INH)” value in data set [2] is listed as 34%.
